Results taken from US20220389007A1, “INHIBITORS OF HUMAN IMMUNODEFICIENCY VIRUS REPLICATION” (VIIV HEALTHCARE UK (No. 5) LIMITED, priority 2019, published 2022).
Like-named read-outs stand apart in the source and are kept apart here.

Experiments:
Format in all cases: cell-based
[1] = system: recombinant NL4-3 virus; assay: HIV cell culture assay (antiviral activity, luciferase readout)
Procedure, shortened: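 MT-2 cells infected for 4-5 days with NL4-3 reference virus carrying Renilla luciferase in place of part of nef, in presence of serial compound dilutions. Luciferase read with live-cell substrate; EC50 from median effect equation fit.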

[2] = system: uninfected MT2 cells; assay: Compound cytotoxicity, XTT-based colorimetric assay; settings: day 4, XTT assay
Procedure, shortened: (§1)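 Run under the antiviral-assay protocol but without virus. Viability was read on day 4 and CC50 values were derived from the readout.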

[3] = as above; settings: human; uninfected MT2 cells, day 4, XTT assay
Procedure, shortened: as §1

[4] = MT-2 cells infected for 4-5 days with recombinant NL4-3 virus carrying Renilla luciferase, read-out: EC50
[5] = Human immunodeficiency virus 1, NL43, MT2, MT-2 cells infected for 4-5 days with recombinant NL4-3 virus carrying Renilla luciferase

Compound | EC50 [1, 4] | CC50 [2] | EC50 [1, 5] | CC50 at 4 day [3]
Cn1nc(NS(C)(=O)=O)c2c(Cl)ccc(-n3c([C@H](Cc4cc(F)cc(F)c4)NC(=O)Cn4nc(C(F)F)c5c4C(F)(F)[C@@H]4C[C@H]54)nc4nc(-c5csc(S(C)(=O)=O)n5)ccc4c3=O)c21 [Example 93, N-((S)-1-((3P)-3-(4-chloro-1-methyl-3-(methylsulfonamido)-1H-indazol-7-yl)-7-(2-(methylsulfonyl)thiazol-4-yl)-4-oxo-3,4-dihydropyrido[2,3-d]pyrimidin-2-yl)-2-(3,5-difluorophenyl)ethyl)-2-((3bS,4aR)-3-(difluoromethyl)-5,5-difluoro-3b,4,4a,5-tetrahydro-1H-cyclopropa[3,4]cyclopenta[1,2-c]pyrazol-1-yl)acetamide] | 0.056 nM | > 100 nM | – | –
Cn1nc(NS(C)(=O)=O)c2c(Cl)ccc(-n3c([C@H](Cc4cc(F)cc(F)c4)NC(=O)Cn4nc(C(F)F)c5c4C(F)(F)[C@@H]4C[C@H]54)nc4nc(-c5cc(C(F)(F)F)nn5CC(C)(F)F)ccc4c3=O)c21 [Example 95, N-((S)-1-((3P)-3-(4-chloro-1-methyl-3-(methylsulfonamido)-1H-indazol-7-yl)-7-(1-(2,2-difluoropropyl)-3-(trifluoromethyl)-1H-pyrazol-5-yl)-4-oxo-3,4-dihydropyrido[2,3-d]pyrimidin-2-yl)-2-(3,5-difluorophenyl)ethyl)-2-((3bS,4aR)-3-(difluoromethyl)-5,5-difluoro-3b,4,4a,5-tetrahydro-1H-cyclopropa[3,4]cyclopenta[1,2-c]pyrazol-1-yl)acetamide] | 0.25 nM | > 100 nM | – | –
Cn1nc(NS(C)(=O)=O)c2c(Cl)ccc(-n3c([C@H](Cc4cc(F)cc(F)c4)NC(=O)Cn4nc(C(F)F)c5c4C(F)(F)[C@@H]4C[C@H]54)nc4nc(-c5cnc(C(C)(C)O)s5)ccc4c3=O)c21 [Example 92, N-((S)-1-((3P)-3-(4-chloro-1-methyl-3-(methylsulfonamido)-1H-indazol-7-yl)-7-(2-(2-hydroxypropan-2-yl)thiazol-5-yl)-4-oxo-3,4-dihydropyrido[2,3-d]pyrimidin-2-yl)-2-(3,5-difluorophenyl)ethyl)-2-((3bS,4aR)-3-(difluoromethyl)-5,5-difluoro-3b,4,4a,5-tetrahydro-1H-cyclopropa[3,4]cyclopenta[1,2-c]pyrazol-1-yl)acetamide] | 0.065 nM | > 100 nM | – | –
Cn1nc(NS(C)(=O)=O)c2c(Cl)ccc(-n3c([C@H](Cc4cc(F)cc(F)c4)NC(=O)Cn4nc(C(F)F)c5c4C(F)(F)[C@@H]4C[C@H]54)nc4nc(-c5ccncn5)ccc4c3=O)c21 (atropisomer, axis not shown; (P)) [Example 28, N-((S)-1-((3P)-3-(4-chloro-1-methyl-3-(methylsulfonamido)-1H-indazol-7-yl)-4-oxo-7-(pyrimidin-4-yl)-3,4-dihydropyrido[2,3-d]pyrimidin-2-yl)-2-(3,5-difluorophenyl)ethyl)-2-((3bS,4aR)-3-(difluoromethyl)-5,5-difluoro-3b,4,4a,5-tetrahydro-1H-cyclopropa[3,4]cyclopenta[1,2-c]pyrazol-1-yl)acetamide] | – | – | 0.04 nM | > 100 nM
Cn1nc(NS(C)(=O)=O)c2c(Cl)ccc(-n3c([C@H](Cc4cc(F)cc(F)c4)NC(=O)Cn4nc(C(F)F)c5c4C(F)(F)[C@@H]4C[C@H]54)nc4ncc(-c5cccc(C(F)F)n5)cc4c3=O)c21 (atropisomer, axis not shown; (P)) [Example 3, N-((S)-1-((3P)-3-(4-chloro-1-methyl-3-(methylsulfonamido)-1H-indazol-7-yl)-6-(6-(difluoromethyl)pyridin-2-yl)-4-oxo-3,4-dihydropyrido[2,3-d]pyrimidin-2-yl)-2-(3,5-difluorophenyl)ethyl)-2-((3bS,4aR)-3-(difluoromethyl)-5,5-difluoro-3b,4,4a,5-tetrahydro-1H-cyclopropa[3,4]cyclopenta[1,2-c]pyrazol-1-yl)acetamide] | – | – | 0.051 nM | > 100 nM
Cc1ccnc(-c2ccc3c(=O)n(-c4ccc(Cl)c5c(NS(C)(=O)=O)nn(C)c45)c([C@H](Cc4cc(F)cc(F)c4)NC(=O)Cn4nc(C(F)F)c5c4C(F)(F)[C@@H]4C[C@H]54)nc3n2)c1 (atropisomer, axis not shown; (P)) [Example 49, N-((S)-1-((3P)-3-(4-chloro-1-methyl-3-(methylsulfonamido)-1H-indazol-7-yl)-7-(4-methylpyridin-2-yl)-4-oxo-3,4-dihydropyrido[2,3-d]pyrimidin-2-yl)-2-(3,5-difluorophenyl)ethyl)-2-((3bS,4aR)-3-(difluoromethyl)-5,5-difluoro-3b,4,4a,5-tetrahydro-1H-cyclopropa[3,4]cyclopenta[1,2-c]pyrazol-1-yl)acetamide] | – | – | 0.018 nM | > 100 nM
Cn1nc(NS(C)(=O)=O)c2c(Cl)ccc(-n3c([C@H](Cc4cc(F)cc(F)c4)NC(=O)Cn4nc(C(F)F)c5c4C(F)(F)[C@@H]4C[C@H]54)nc4nc(-c5nccc(C(F)(F)F)n5)ccc4c3=O)c21 (atropisomer, axis not shown; (P)) [Example 5, N-((S)-1-((3P)-3-(4-chloro-1-methyl-3-(methylsulfonamido)-1H-indazol-7-yl)-4-oxo-7-(4-(trifluoromethyl)pyrimidin-2-yl)-3,4-dihydropyrido[2,3-d]pyrimidin-2-yl)-2-(3,5-difluorophenyl)ethyl)-2-((3bS,4aR)-3-(difluoromethyl)-5,5-difluoro-3b,4,4a,5-tetrahydro-1H-cyclopropa[3,4]cyclopenta[1,2-c]pyrazol-1-yl)acetamide] | – | – | 0.021 nM | > 100 nM
